A short description of the data set: Human HepG2 cell viability assay in 384 well format. In kind it is toxicity, cell-based. Details: dose 125 nL, time 70.5 hour; cytotoxicity at 70.5 h: concentration not given beside the values. The settings on record: HepG2 cells, read-out: Inhibition.

As to `CC1(NC(=O)Cc2csc(-c3cccc(Cl)c3)n2)CCS(=O)(=O)C1` (centres undefined), the cytotoxicity at 70.5 h was -63.1%.

Regarding `O=C(CCNCc1cccc2c1OCCCO2)NC1CCCC1`, the cytotoxicity at 70.5 h was found to be 6.45%.

Take `CCc1nc2n(n1)CC(NCc1nc3ccccc3nc1C)CC2` (centres undefined): the cytotoxicity at 70.5 h was 1.64%.

In the case of `COCc1nc2cc3c(cc2c(=O)o1)OCCCO3`, the cytotoxicity at 70.5 h was -7.11%.

Regarding `COc1ccccc1OCc1nc2cc3c(cc2c(=O)o1)OCCCO3`, the cytotoxicity at 70.5 h is 31.8%.

With `COC(=O)CSCc1noc(-c2ccc(Cl)cc2)n1`, the cytotoxicity at 70.5 h was -13.5%.

Regarding `COC(=O)CSCc1nc(-c2ccc(Cl)cc2)no1`, the cytotoxicity at 70.5 h was 11%.

On to `Cc1ccc(-c2cc(CN(CC(N)=O)CC(C)C)on2)cc1`, for which the cytotoxicity at 70.5 h was -2.81%.

Take `CN(C)c1nc(N)nc(CN2CCCC(c3ccccc3)CC2)n1` (centres undefined): the cytotoxicity at 70.5 h is -3.13%.

As to `Cc1cc(CN(CC(N)=O)CC(C)C)no1`, the cytotoxicity at 70.5 h was -4.27%.

In the case of `CCn1cnnc1CNC(=O)N1CCOC(c2ccc(Cl)cc2)C1` (centres undefined), the cytotoxicity at 70.5 h was -13.5%.

Turning to `CCn1cnnc1CNC(=O)N1CCOC(c2ccccc2Cl)C1` (centres undefined), the cytotoxicity at 70.5 h is -3.84%.

On to `O=C(Nc1cn[nH]c1)NC1CCN(c2ccccc2OC(F)F)C1` (centres undefined), for which the cytotoxicity at 70.5 h is 2.39%.

Take `Cc1cc(CNCC2(O)CCOCC2)ccc1F`: the cytotoxicity at 70.5 h is -0.741%.

As for `COC(CNC(=O)c1ccoc1)c1cccc(Cl)c1` (centres undefined), the cytotoxicity at 70.5 h is -5.07%.

As for `CCc1nc(CCNc2ncccc2S(N)(=O)=O)sc1C`, the cytotoxicity at 70.5 h is 1.18%.

As for `CNC(=O)c1cccnc1NCc1ccc(Cn2cccn2)cc1`, the cytotoxicity at 70.5 h is -3.1%.

Regarding `CNC(=O)c1cccnc1NCc1ccc(Cn2ccnc2)cc1`, the cytotoxicity at 70.5 h turned out to be 34.2%.

With `CNC(=O)c1cccnc1NCc1ccc(-n2cccn2)cc1`, the cytotoxicity at 70.5 h worked out at 4%.

With `Cc1nnc(CN(C)CC(=O)N2CCCC(C(F)(F)F)C2)n1C` (centres undefined), the cytotoxicity at 70.5 h was 16.8%.

Take `CN(Cc1nc(C2CC2)no1)C1CCS(=O)(=O)C1` (centres undefined): the cytotoxicity at 70.5 h was -4.77%.

With `COc1ccc(OCc2noc(CN(C)C3CCS(=O)(=O)C3)n2)cc1` (centres undefined), the cytotoxicity at 70.5 h is -5.76%.

Turning to `CC(C)Cc1noc(CN(C)C2CCCC2)n1`, the cytotoxicity at 70.5 h is 28.6%.

For the compound `CCc1nc2n(n1)CC(NCc1nc3ccccc3o1)CC2` (centres undefined), the cytotoxicity at 70.5 h is -8.97%.

With `CCc1nc2n(n1)CC(NCc1cc3ccccc3o1)CC2` (centres undefined), the cytotoxicity at 70.5 h was -8.62%.

Take `c1ccc(CCN2CCc3c(ncn3C3CC3)C2)nc1`: the cytotoxicity at 70.5 h is -3.33%.

As for `CN(C)S(=O)(=O)CCCN1CCc2c(ncn2C2CC2)C1`, the cytotoxicity at 70.5 h was determined as 9.65%.

With `NC(=O)NC(=O)C(c1ccccc1)N1CCN(Cc2ccc(Cl)s2)CC1` (centres undefined), the cytotoxicity at 70.5 h was -3.49%.

For `O=C(NC1CC1)C(c1ccccc1)N1CCN(Cc2ccc(Cl)s2)CC1` (centres undefined), the cytotoxicity at 70.5 h is -3.83%.

`O=C1CCC(=O)N1Cc1ccc(C(=O)N2CCCC2c2cccs2)cc1` (centres undefined): the cytotoxicity at 70.5 h was -11.1%.

With `CC(C(=O)Nc1ccccc1F)S(C)(=O)=O` (centres undefined), the cytotoxicity at 70.5 h came to 2.07%.

As to `CC(C)CCNC(=O)NC(C)c1nncn1C` (centres undefined), the cytotoxicity at 70.5 h worked out at 22%.

Turning to `NC(=O)C1CCN(C(=O)NC2CCc3cc(F)ccc32)CC1` (centres undefined), the cytotoxicity at 70.5 h turned out to be 2.63%.

Regarding `O=C(NCC1CCC1)c1ccc(-n2ccnc2)nn1`, the cytotoxicity at 70.5 h was found to be 5.15%.

Turning to `CN1CCOC(CNC(=O)C2(c3cccc(C(F)(F)F)c3)CCCC2)C1` (centres undefined), the cytotoxicity at 70.5 h worked out at 6.99%.

Consider `CC1CCCN(C(=O)c2occc2COc2cccc(C#N)c2)C1` (centres undefined), for which the cytotoxicity at 70.5 h was determined as 4.5%.

For the compound `Cc1cc(CN(Cc2ccccc2)C2CC2)on1`, the cytotoxicity at 70.5 h was -0.663%.

With `CCNS(=O)(=O)c1ccc(C)c(C(=O)N(C)Cc2ccccc2C)c1`, the cytotoxicity at 70.5 h is 2.99%.

As to `COCCN(Cc1ccc(F)cc1Cl)C(=O)c1cc[n+]([O-])cc1`, the cytotoxicity at 70.5 h was 17.1%.

In the case of `CCc1ccsc1C(=O)N1CCCC(c2noc(C)n2)C1` (centres undefined), the cytotoxicity at 70.5 h was -2.57%.

For the compound `Cc1nc(C2CCCN(C(=O)c3cc(C)sc3C)C2)no1` (centres undefined), the cytotoxicity at 70.5 h is -2.35%.

Regarding `CSCCNC(=O)c1cc(Br)cn1C(C)C`, the cytotoxicity at 70.5 h is -1.74%.

Take `CCNS(=O)(=O)c1ccc(C)c(C(=O)N(CCC#N)Cc2ccco2)c1`: the cytotoxicity at 70.5 h is 19.1%.

Turning to `CCc1nc(CN2CCCC(N(C)CCn3cccn3)C2)no1` (centres undefined), the cytotoxicity at 70.5 h worked out at 57.1%.

Regarding `CCOC(C)C(=O)N1CCN(S(C)(=O)=O)CC1` (centres undefined), the cytotoxicity at 70.5 h is -112%.

For `CC(NC(=O)C1=NN(C)C(=O)CC1)c1ccccc1Cl` (centres undefined), the cytotoxicity at 70.5 h is -96.4%.

In the case of `CS(=O)(=O)CCOc1nc(-c2ccccc2Cl)no1`, the cytotoxicity at 70.5 h was -102%.

Consider `CC(CN1CCCC1=O)NC(=O)c1ccc(C(F)(F)F)[nH]c1=O` (centres undefined), for which the cytotoxicity at 70.5 h is -74.6%.

Turning to `CCc1ncc2c(n1)CN(Cc1cc(C)on1)CC2`, the cytotoxicity at 70.5 h is -106%.

In the case of `CC(CN1CCCC1=O)NC(=O)c1cc(=O)[nH]c2ccc(Cl)cc12` (centres undefined), the cytotoxicity at 70.5 h is -85.6%.

With `Cc1n[nH]c(C2CN(CC(=O)NCCc3ccc(F)cc3)CCO2)n1` (centres undefined), the cytotoxicity at 70.5 h was -114%.

`O=C(NS(=O)(=O)c1c(Cl)cccc1Cl)c1cccc2c1OCCO2`: the cytotoxicity at 70.5 h was -103%.

For `COC(=O)c1ccccc1S(=O)(=O)NC(=O)c1cccc2c1OCCO2`, the cytotoxicity at 70.5 h was -100%.

`CCC(COC)NC(=O)N1CCC(n2ccc(C(F)(F)F)n2)CC1` (centres undefined): the cytotoxicity at 70.5 h was -104%.

Take `O=C(NCCCF)N1CCC(n2ccc(C(F)(F)F)n2)CC1`: the cytotoxicity at 70.5 h was -104%.

On to `COC(C)(C)CNC(=O)N1CCC(n2ccc(C(F)(F)F)n2)CC1`, for which the cytotoxicity at 70.5 h is -76.1%.

Turning to `Cc1cccc(C(=O)N2CCN(S(C)(=O)=O)[C@@H](C)C2)c1Cl`, the cytotoxicity at 70.5 h is -102%.

Take `CCc1ncc2c(n1)CN(Cc1nnc(C(C)C)o1)CC2`: the cytotoxicity at 70.5 h is -99.6%.

In the case of `CCc1ncc2c(n1)CN(Cc1nnc(CC)o1)CC2`, the cytotoxicity at 70.5 h is -79.4%.

Regarding `COCCc1noc(CN2CCCC2c2noc(C)n2)n1` (centres undefined), the cytotoxicity at 70.5 h was -0.394%.

Take `CN1CCN(CC2CCN(C(=O)CCC3CCCCC3)CC2)CC1`: the cytotoxicity at 70.5 h was -2.91%.

In the case of `O=S(=O)(NCC1COc2ccccc2C1)N1CCCCCC1` (centres undefined), the cytotoxicity at 70.5 h is -7.48%.

On to `Cc1ccc(C(=O)NC2CCN(Cc3nc(CC(C)C)no3)CC2)s1`, for which the cytotoxicity at 70.5 h stood at 1.36%.

On to `CCCc1noc(CN2CCC(NC(=O)c3ccc(C)s3)CC2)n1`, for which the cytotoxicity at 70.5 h was -4.33%.

Turning to `Nc1ncc(C(=O)N2CCN(c3nccs3)CC2)cc1Cl`, the cytotoxicity at 70.5 h is -4.3%.

Turning to `CCOC(=O)NCCC(=O)NC(C)(C)c1ccc2c(c1)OCCO2`, the cytotoxicity at 70.5 h is -6.26%.

As for `COCC(NC(=O)c1ccco1)c1cccc(C(F)(F)F)c1` (centres undefined), the cytotoxicity at 70.5 h was -3.48%.

Consider `O=C(C(CNCc1cccs1)c1ccccc1)N1CCOCC1` (centres undefined), for which the cytotoxicity at 70.5 h was 7.5%.

For `CCn1nc2c(cc1=O)CN(Cc1nc(C)c3ccccc3n1)CC2`, the cytotoxicity at 70.5 h is -6.18%.

For the compound `CC(c1cccnc1)N(C)Cc1ccccn1` (centres undefined), the cytotoxicity at 70.5 h was -7.62%.

For `O=C(C(CNCc1cccnc1)c1ccccc1)N1CCOCC1` (centres undefined), the cytotoxicity at 70.5 h is -8.37%.

Consider `CCC(C)(CCO)NC(=O)c1ccon1` (centres undefined), for which the cytotoxicity at 70.5 h was 24.8%.

In the case of `Cc1cc(NC(=O)c2ccc(F)cc2F)n(C)n1`, the cytotoxicity at 70.5 h is -10.6%.

`Cc1cc(NC(=O)c2ccc(F)cc2Cl)n(C)n1`: the cytotoxicity at 70.5 h turned out to be 6.57%.

In the case of `COc1cc(Cl)c(NCc2c(C)noc2C)cc1OC`, the cytotoxicity at 70.5 h is -7.06%.

Consider `COc1cc(NCc2c(C)noc2C)c(C(=O)N(C)C)cc1OC`, for which the cytotoxicity at 70.5 h was -8.14%.

Consider `Cc1cc(NC(=O)COC(=O)c2ccc(F)cc2Br)n(C)n1`, for which the cytotoxicity at 70.5 h was -12.3%.

As for `Cc1cc(NC(=O)c2ccc(F)cc2Br)n(C)n1`, the cytotoxicity at 70.5 h is -4.35%.

For the compound `O=c1[nH]ncc(NCCOc2cccc(Br)c2)c1Cl`, the cytotoxicity at 70.5 h was -5.68%.

In the case of `CN(CC(=O)Nc1cc(C(C)(C)C)n[nH]1)S(C)(=O)=O`, the cytotoxicity at 70.5 h stood at 12%.

As for `Cc1nn(CC(O)CN2CCC(C)CC2)c(=O)c(C#N)c1C` (centres undefined), the cytotoxicity at 70.5 h was -17%.

For `CCCn1nnnc1CN1Cc2ccccc2CC1c1nnc(C)o1` (centres undefined), the cytotoxicity at 70.5 h is -8.77%.

On to `Cn1c(C(=O)N(CC(N)=O)C2CCCC2)cc(Cl)c1Cl`, for which the cytotoxicity at 70.5 h is -10.6%.

For the compound `C=C(C)CN1CCCC(CNS(C)(=O)=O)C1` (centres undefined), the cytotoxicity at 70.5 h was -4.35%.

In the case of `Cc1ccc(-c2cc(CN3CCc4cncnc4C3)on2)cc1`, the cytotoxicity at 70.5 h was -10.9%.

On to `CCN(C(=O)COc1nc(Cc2ccc(F)cc2)no1)C1CC1`, for which the cytotoxicity at 70.5 h is -5.41%.

For the compound `CN(CC(F)(F)F)C(=O)COc1nc(Cc2ccc(F)cc2)no1`, the cytotoxicity at 70.5 h is -7.01%.

`Cc1cnn(CCNCC(O)c2ccc(S(C)(=O)=O)cc2)c1` (centres undefined): the cytotoxicity at 70.5 h is -11.8%.

For `Cc1cccc(N2N=C(C(=O)NC(C)CCc3ccco3)CCC2=O)c1` (centres undefined), the cytotoxicity at 70.5 h was determined as 28.5%.

For the compound `CC(C)CCN(C(=O)c1cccc(NC(N)=O)c1)C1CC1`, the cytotoxicity at 70.5 h is -17.2%.

For the compound `CC(C)COC1CCN(C(=O)c2ccc(C(F)(F)F)[nH]c2=O)CC1`, the cytotoxicity at 70.5 h is -4.17%.

For the compound `c1cc(-c2nnc(C3(c4ccc5c(c4)OCO5)CCOCC3)o2)ccn1`, the cytotoxicity at 70.5 h was -11.2%.

For the compound `NC(=O)Nc1cccc(C(=O)N(Cc2ccncc2)C2CC2)c1`, the cytotoxicity at 70.5 h is -10.2%.

As for `O=C(Nc1cc(-c2ccccc2)on1)N1CCN(CCO)CC1`, the cytotoxicity at 70.5 h was -6.53%.

With `CC(SCc1cc(Br)cc2cccnc12)C(N)=O` (centres undefined), the cytotoxicity at 70.5 h was -16%.

For `CC(SCc1ccc(Br)c2cccnc12)C(N)=O` (centres undefined), the cytotoxicity at 70.5 h stood at 18.2%.

In the case of `COCCn1ccc2ccc(NC(=O)NCc3noc(C)n3)cc21`, the cytotoxicity at 70.5 h stood at 2.1%.

Turning to `CC(C)(C#N)CCCS(=O)(=O)c1nccn1-c1cccc(F)c1`, the cytotoxicity at 70.5 h was -10.9%.

For `CC(SCCS(C)(=O)=O)c1nc(Cc2ccc(F)cc2)no1` (centres undefined), the cytotoxicity at 70.5 h is -0.925%.

Consider `CCC(=O)N(CC)CCc1nccs1`, for which the cytotoxicity at 70.5 h is -9.4%.

Turning to `Cc1ccc(C(=O)N(C)C)cc1NC(=O)COCC1CC1`, the cytotoxicity at 70.5 h was -6.84%.

With `CCN(CCc1nccs1)C(=O)c1sccc1C`, the cytotoxicity at 70.5 h is -9.19%.

In the case of `CCOc1cc(CN(C)CC(=O)O)ccc1OC(F)F`, the cytotoxicity at 70.5 h was determined as 6.63%.

Turning to `Cc1sc(Br)cc1S(=O)(=O)NCCCN`, the cytotoxicity at 70.5 h is -8.71%.

Values taken from ChEMBL document CHEMBL3507680, “University of Dundee, Gates Library screen for HepG2 cell viability”.
